Experimental findings from patent publication US12358919B2, “Antibacterial compounds” (Universita' degli Studi di Siena, priority 2019, dated 2025) are described below.

The structures appear in SMILES notation. Where two headings read alike, the source gives them in different places. Where a SMILES comes first, the peptide text is derived from it. Bridges are numbered along the chain shown (N, C = ends). [ ]: non-standard residue; d: D form. The star is where a group is joined. X1 = CC[C@H](C)CCCCC(=O)*; Dab = NCC[C@H](N)C(=O)O

The subject of assay [1] is Klebsiella pneumoniae ATCC 13833. As to the kind of experiment: microbe, parasite or virus in culture. The assay is classed as cell-based. Particulars: for Potentiation fold: ratio MICcompound/MICcompound+polymyxin E; for MIC in presence of colistin: with 0.25xMIC polymyxin E1 (0.12 mg/L); for MIC: Klebsiella pneumoniae, ATCC13833. How it is done: (§1) Growth inhibition or killing of bacteria was investigated using conventional methods widely described in the scientific literature. Parameters such as the Minimum Inhibitory Concentration (MIC) were determined as described in Clinical Laboratory Standard Institute (CLSI) document M07 “Methods for Dilution Antimicrobial Susceptibility Tests for Bacteria That Grow Aerobically, 11th Edition” (2018). Synergistic activity of the compounds described in the present specification were determined by measuring the variation of the MIC's compound in the absence and presence of a sub-inhibitory concentration of a suitable antibacterial agent, such as polymyxin E1. Furthermore, the Fractional Inhibitory Concentrations (FICs) were measured using a chequerboard analysis to determine the average FIC index (FICI), whose value is known to characterize the interaction between two compounds and/or drugs (≤0.5, synergistic interaction; >0.5 and <2, no interaction, additive effect; ≥2, antagonistic interaction). Furthermore, the selectivity of the compounds was investigated by measuring their cytotoxic effect on mammalian cell lines (e.g. HeLa cells).
(§2) Several methods were used to investigate the synergistic activity of the compounds, including (a) the determination of the MIC in the presence of a sub-inhibitory concentration of a suitable antibacterial agent, (b) the determination of the average FICI using a chequerboard analysis and (c) the time-kill curve analysis of a suitable agent (at a sub-inhibitory concentration) in the absence and presence of the pyrazolo[4,3-b]pyridin-6-carboxamide compound at a fixed concentration of 2 or 8 mg/L.
(§3) The MIC of the compound was determined alone and in the presence of a fixed and sub-inhibitory concentration of a suitable antibacterial agent of the polymyxin class, such as polymyxin E1 (colistin). The potentiation fold was computed as the ratio MICcompound/MICcompound+polymyxin E. Tested organisms included Escherichia coli CCUG^TKlebsiella pneumoniae ATCC 13833 and Acinetobacter baumannii ATCC 17978, which show a colistin MIC of 0.5, 0.5 and 1 mg/L, respectively.

Assay [2] concerns Acinetobacter baumannii ATCC 17978. The experiment in a line: microbe, parasite or virus in culture. The assay is classed as cell-based. Particulars: for Potentiation fold: ratio MICcompound/MICcompound+polymyxin E; for MIC in presence of colistin: with 0.25xMIC polymyxin E1 (0.25 mg/L); for MIC: Acinetobacter baumannii, ATCC17978. On the procedure:
as §1, §2, §3

The subject of assay [3] is Escherichia coli CCUG^T. As to the kind of experiment: microbe, parasite or virus in culture. The class given is cell-based. As to conditions: for Potentiation fold: ratio MICcompound/MICcompound+polymyxin E; for MIC in presence of colistin: with 0.25xMIC polymyxin E1 (0.12 mg/L); for MIC: Escherichia coli. How it is done:
as §1, §2, §3

Assay [4] concerns K. pneumoniae ATCC 13833. As to the kind of experiment: Chequerboard analysis with polymyxin E1 (average FIC index). The assay is classed as cell-based, Klebsiella pneumoniae. Particulars: compound + polymyxin E1.
Assay [5] deals with E. coli CCUG^T. Described as above. The class given is cell-based, Escherichia coli. As to conditions: compound + polymyxin E1.
Assay [6] has as its system Acinetobacter baumannii (N50 strain), multidrug-resistant clinical isolate resistant to polymyxin E1. As to the kind of experiment: Time-kill curve analysis (bactericidal activity). The class given is cell-based. As to conditions: polymyxin E1 2 mg/L alone; inoculum 10^5 CFU/mL. How it is done: FIG. 1: bactericidal activity on Acinetobacter baumannii (N50 strain) of polymyxin E1, 2 mg/L (square); polymyxin E1, 2 mg/L+compound Ib 32 mg/L (triangles); control (circles).
as §2
The kinetics of bacterial killing offers an additional mean to characterize the antibacterial activity of compounds, also in combination with other antimicrobial agents. Compounds or a combination thereof are defined as bactericides when the viable bacterial load is decreased by at least 3 log10 (EUCAST, cit.).
This analysis was carried with a multidrug-resistant Acinetobacter baumannii clinical isolate showing resistance to polymyxin E1. The time-kill curves were generated starting from a bacterial inoculum of 10^5 CFU/mL. Bacterial count was determined at several time intervals in the absence (control) or presence of 2 mg/L polymyxin E1 (corresponding to the resistance breakpoint, EUCAST, cit.) supplemented with 32 mg/L of compound Ib (FIG. 1).

The test system of assay [7] is polymyxin E1-resistant Acinetobacter baumannii (strain N50) clinical isolate. The class given is cell-based. Particulars: A. baumannii N50; colistin alone. On the procedure:
as §1
“Chequerboard” method was used to further investigate the synergistic activity of pyrazolo[4,3-b]pyridin-6-carboxamides when this compounds are combined with polymyxin E1. […]

`CCCCCn1c(=O)c(C(=O)NC23CC4CC(CC(C4)C2)C3)c(O)c2nn(CCO)cc21` [In, N-(Adamantan-1-yl)-4,5-dihydro-7-hydroxy-2-(2-hydroxyethyl)-5-oxo-4-(1-pentyl)-2H-pyrazolo[4,3-b]pyridin-6-carboxamide]: the Potentiation fold in assay [1] (K. pneumoniae ATCC 13833) is reported as no less than 32; in assay [2] (A. baumannii ATCC 17978), no less than 16; in assay [3] (E. coli CCUG^T), no less than 8. For the same compound, the “MIC in presence of colistin” value in assay [1] (K. pneumoniae ATCC 13833) was 16 µg/mL; in assay [2] (A. baumannii ATCC 17978), 32 µg/mL; in assay [3] (E. coli CCUG^T), 64 µg/mL. The MIC in assay [1], in assay [2] and in assay [3] was greater than 512 µg/mL each time. Moreover, in assay [4], the “Average FIC index” value is given as 0.32.
Consider `CCCCn1c2c(c(O)c(C(=O)NC34CC5CC(CC(C5)C3)C4)c1=O)N(CCO)NC2` [Ip, N-(Adamantan-1-yl)-4-(1-butyl)-4,5-dihydro-7-hydroxy-1-(2-hydroxyethyl)-5-oxo-2H-pyrazolo[4,3-b]pyridin-6-carboxamide], for which the Potentiation fold is listed as no less than 32 in assay [1] (K. pneumoniae ATCC 13833), no less than 16 in assay [2] (A. baumannii ATCC 17978) and no less than 16 in assay [3] (E. coli CCUG^T). The “MIC in presence of colistin” value in assay [1] (K. pneumoniae ATCC 13833) worked out at 16 µg/mL; in assay [2] (A. baumannii ATCC 17978) it was 32 µg/mL; in assay [3] (E. coli CCUG^T), 32 µg/mL. In addition, the MIC in assay [1] (K. pneumoniae ATCC 13833, compound alone, read-out: MIC) was greater than 512 µg/mL; in assay [2] (A. baumannii ATCC 17978, compound alone, read-out: MIC), greater than 512 µg/mL; in assay [3] (E. coli CCUG^T, compound alone, read-out: MIC), greater than 512 µg/mL. For the same compound, the “Average FIC index” value was determined as 0.32 in assay [4] and 0.33 in assay [5].
With `CC[C@H](C)CCCCC(=O)N[C@@H](CCN)C(=O)N[C@H](C(=O)N[C@@H](CCN)C(=O)N[C@H]1CCNC(=O)[C@H]([C@@H](C)O)NC(=O)[C@H](CCN)NC(=O)[C@H](CCN)NC(=O)[C@H](CC(C)C)NC(=O)[C@@H](CC(C)C)NC(=O)[C@H](CCN)NC1=O)[C@@H](C)O` [colistin, polymyxin E1, reference compound] (X1-[Dab]T[Dab][Dab][Dab][dL]L[Dab][Dab]T; lactam 4-C (inferred); N-terminus assumed), the “colistin MIC” value in assay [1] (Klebsiella pneumoniae ATCC 13833, colistin alone) is 0.5 µg/mL; in assay [2] (Acinetobacter baumannii ATCC 17978, colistin alone), 1 µg/mL; in assay [3] (Escherichia coli CCUG^T, colistin alone) it was 0.5 µg/mL. Besides, the “bactericidal activity (killing of the bacterial population)” value in assay [6] is “unable to achieve complete and irreversible killing of the bacterial population”. Besides, the “MIC Colistin” value in assay [7] was found to be 8 µg/mL.
